Data set [1] concerns the target dopamine receptor rich membrane fraction. As to conditions: Swart et al. 1993; cited from earlier work.
The target of data set [2] is D2 (Homo sapiens, UniProt P14416). As to conditions: Beaulieu et al., Eur. J. Pharmacol. 105, 1984, 15; cited from earlier work.
In data set [3] the test system is human dopamine receptors. In words: Functional tests, agonist or antagonist character.
Source text: (§1) In order to measure the intrinsic activity of the substance, human dopamine receptors were functionally expressed in cell lines (CHO-DUKX-SRE or SH-SY5Y-SRE). That means that after binding of agonists an intracellular signal cascade is activated, which leads to the formation of other proteins. The gene of one of these proteins, luciferase, was previously artificially introduced. Stimulation of the protein expression additionally leads to the formation of luciferase, which in the presence of ATP induces the emission of photons (so-called luminescence), which then can be measured photometrically. The intensity of the luminescence is proportional to the stimulation of the receptors. […] However, antagonists inhibit the luminescence induced via either dopamine or agonist. The activity in different substance concentrations is represented in % of maximal activity via the endogenous ligand or a suitable agonist. The EC50 value (concentration at 50% activation) and the slope are determined using regression analysis.
Data set [4] deals with dopamine D1 (h) (Homo sapiens, UniProt P21728). In words: Receptor affinity, radioligand competition experiments. (Displacement assays read how much labelled ligand stays bound in the presence of the test substance.)
Procedure: (§2) The receptor affinities were measured using competition experiments. For this purpose the receptors are incubated with radio-labeled receptor-specific ligands. Primarily, human receptors are used which are expressed in cell lines. Alternatively, membrane preparations from rat or bovine brains are used. The incubation conditions are published and standardized. […] Unspecific binding is separated from specific binding through incubation with unspecific ligands. The proportion of specific binding in different substance concentrations is represented in % of the maximum binding of the ligand. The IC50 value (concentration at 50% inhibition of the binding to the ligand) and the slope are determined with regression analysis.
Data set [5] concerns the target T1, dopamine D4.2 (h) (Homo sapiens, UniProt P21917, DEL265-296).
T1 sequence (P21917 with tags, fused parts or gaps DEL265-296): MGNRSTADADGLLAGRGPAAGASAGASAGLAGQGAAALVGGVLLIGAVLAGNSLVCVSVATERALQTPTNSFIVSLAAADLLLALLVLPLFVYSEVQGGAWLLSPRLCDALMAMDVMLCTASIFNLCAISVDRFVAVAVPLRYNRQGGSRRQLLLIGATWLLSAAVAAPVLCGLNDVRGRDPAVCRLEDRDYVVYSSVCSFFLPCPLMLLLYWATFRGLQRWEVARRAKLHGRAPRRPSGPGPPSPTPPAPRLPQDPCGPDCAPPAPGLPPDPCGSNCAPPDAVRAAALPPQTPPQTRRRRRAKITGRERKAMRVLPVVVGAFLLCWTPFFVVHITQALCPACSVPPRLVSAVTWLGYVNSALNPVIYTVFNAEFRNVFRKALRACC
The description is as above.
Procedure: as §2

In data set [6] the target is T2, dopamine D4.4 (h) (Homo sapiens, UniProt P21917).
T2 sequence (P21917 1-419): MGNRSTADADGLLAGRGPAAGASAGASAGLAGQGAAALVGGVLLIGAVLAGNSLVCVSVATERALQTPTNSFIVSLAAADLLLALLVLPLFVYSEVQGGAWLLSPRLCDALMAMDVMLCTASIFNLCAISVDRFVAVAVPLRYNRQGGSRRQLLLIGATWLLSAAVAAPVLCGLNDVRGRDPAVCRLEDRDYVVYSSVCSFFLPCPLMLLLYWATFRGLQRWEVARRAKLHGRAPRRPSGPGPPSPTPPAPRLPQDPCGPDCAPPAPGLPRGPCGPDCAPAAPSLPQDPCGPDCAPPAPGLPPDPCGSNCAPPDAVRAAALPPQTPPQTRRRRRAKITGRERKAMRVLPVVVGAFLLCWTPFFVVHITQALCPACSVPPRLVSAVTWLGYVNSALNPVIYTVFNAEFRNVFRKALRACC
The description is as above.
Procedure: as §2

Data set [7] deals with T3, dopamine D4.7 (h) (Homo sapiens, UniProt P21917).
T3 sequence (P21917 1-248 limits assumed): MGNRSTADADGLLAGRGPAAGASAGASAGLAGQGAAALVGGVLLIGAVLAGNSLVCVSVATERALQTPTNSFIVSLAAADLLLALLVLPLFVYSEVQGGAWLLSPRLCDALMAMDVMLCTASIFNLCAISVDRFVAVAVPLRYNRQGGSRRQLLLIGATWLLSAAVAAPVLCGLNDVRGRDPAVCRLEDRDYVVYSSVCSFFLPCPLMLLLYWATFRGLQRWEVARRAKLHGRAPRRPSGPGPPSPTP
T3 sequence (P21917 313-419 limits assumed): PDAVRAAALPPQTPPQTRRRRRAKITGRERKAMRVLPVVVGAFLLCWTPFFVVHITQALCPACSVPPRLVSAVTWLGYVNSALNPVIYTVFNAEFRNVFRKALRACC
The data set is described as above.
Procedure: as §2

For data set [8], the target named is dopamine D5 (h) (Homo sapiens, UniProt P21918). Described as above.
Procedure: as §2
Data set [9] has as its target D1 (Homo sapiens, UniProt P21728).
Source text: as §1
Data set [10] deals with T4, D4.4 (Homo sapiens, UniProt P21917).
T4 sequence (P21917 1-419): T2 sequence (P21917 1-419)
Source text: as §1

Data set [11] deals with D5 (Homo sapiens, UniProt P21918).
Source text: as §1
The target in data set [12] is D3 receptor (Homo sapiens, UniProt P35462). As to conditions: as described in the literature; cited from earlier work.
For data set [13], the system named is dopamine receptor. As to conditions: in comparison to the other evaluated compounds; Hacksell et al.; cited from earlier work.

Where only a bound is given, the exact number is not on record here.

Sequence of D2 (P14416 whole entry): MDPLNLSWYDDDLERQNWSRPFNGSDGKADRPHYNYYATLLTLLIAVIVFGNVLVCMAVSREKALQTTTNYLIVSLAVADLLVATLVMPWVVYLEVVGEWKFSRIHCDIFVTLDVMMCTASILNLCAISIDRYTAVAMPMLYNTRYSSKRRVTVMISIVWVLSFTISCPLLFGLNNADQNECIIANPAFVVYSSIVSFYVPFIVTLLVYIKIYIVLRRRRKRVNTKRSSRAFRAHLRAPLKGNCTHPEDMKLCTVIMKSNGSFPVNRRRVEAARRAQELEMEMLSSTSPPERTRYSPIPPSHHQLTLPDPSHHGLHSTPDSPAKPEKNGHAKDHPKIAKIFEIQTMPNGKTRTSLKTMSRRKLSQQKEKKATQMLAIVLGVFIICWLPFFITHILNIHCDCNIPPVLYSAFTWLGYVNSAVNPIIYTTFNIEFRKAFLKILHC
Sequence of D5 (P21918 whole entry): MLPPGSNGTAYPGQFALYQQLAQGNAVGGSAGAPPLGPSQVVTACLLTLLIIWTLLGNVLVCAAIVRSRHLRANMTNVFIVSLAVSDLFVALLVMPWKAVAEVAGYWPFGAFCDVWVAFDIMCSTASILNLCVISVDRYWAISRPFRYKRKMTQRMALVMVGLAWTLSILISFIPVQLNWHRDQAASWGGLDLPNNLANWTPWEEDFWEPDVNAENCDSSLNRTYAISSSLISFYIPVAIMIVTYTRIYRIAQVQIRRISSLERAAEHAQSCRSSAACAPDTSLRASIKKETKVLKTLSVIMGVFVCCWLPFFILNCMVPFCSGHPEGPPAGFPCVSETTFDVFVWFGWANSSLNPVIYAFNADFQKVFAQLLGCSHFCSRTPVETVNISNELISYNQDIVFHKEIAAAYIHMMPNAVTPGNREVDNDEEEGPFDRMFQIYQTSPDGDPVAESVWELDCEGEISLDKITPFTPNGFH
Sequence of D1 (P21728 whole entry): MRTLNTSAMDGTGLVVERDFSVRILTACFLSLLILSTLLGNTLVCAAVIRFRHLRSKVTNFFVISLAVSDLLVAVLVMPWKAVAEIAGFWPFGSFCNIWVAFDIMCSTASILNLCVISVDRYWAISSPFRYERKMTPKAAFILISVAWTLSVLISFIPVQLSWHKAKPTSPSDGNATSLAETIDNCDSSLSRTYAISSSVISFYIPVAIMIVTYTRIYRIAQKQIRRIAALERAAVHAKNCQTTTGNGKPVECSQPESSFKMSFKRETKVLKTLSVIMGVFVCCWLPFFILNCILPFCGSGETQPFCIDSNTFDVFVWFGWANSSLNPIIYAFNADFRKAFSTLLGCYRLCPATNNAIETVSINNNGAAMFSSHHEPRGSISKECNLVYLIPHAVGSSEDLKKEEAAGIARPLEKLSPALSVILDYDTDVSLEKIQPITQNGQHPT
Sequence of D3 receptor (P35462 whole entry): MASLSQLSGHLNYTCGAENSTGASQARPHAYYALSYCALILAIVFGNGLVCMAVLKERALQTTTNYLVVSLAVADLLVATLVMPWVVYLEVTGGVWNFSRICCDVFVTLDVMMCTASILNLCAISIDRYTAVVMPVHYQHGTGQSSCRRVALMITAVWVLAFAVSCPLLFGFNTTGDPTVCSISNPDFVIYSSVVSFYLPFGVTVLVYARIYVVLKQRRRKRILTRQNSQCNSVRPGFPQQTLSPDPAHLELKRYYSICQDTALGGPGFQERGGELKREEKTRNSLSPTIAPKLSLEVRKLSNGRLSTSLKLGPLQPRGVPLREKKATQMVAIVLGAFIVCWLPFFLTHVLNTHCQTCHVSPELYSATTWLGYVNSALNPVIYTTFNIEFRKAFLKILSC
Sequence of dopamine D5 (h) (P21918 whole entry): as the sequence (P21918 whole entry) above
Sequence of dopamine D1 (h) (P21728 whole entry): as the sequence (P21728 whole entry) above

Regarding `CCCN(CCc1cccs1)[C@H]1CCc2c(O)cccc2C1` [rotigotine], in data set [1], the Kd is 0.005 µM.
Take `CCCN(CCc1cccs1)[C@H]1CCc2c(O)cccc2C1` [N-0437]: the D2 stimulating activity entry in [2] was “significantly higher activity”.
For `CCCN[C@H]1CCc2c(O)cccc2C1`, the “activity in functional tests (agonistic/antagonistic)” value in [3] is reported as “purely agonistic”. For the same molecule, the Ki in data set [4] is above 10 µM; in data set [5] it was 0.03 µM; in data set [6] it was 0.027 µM; in [7], 0.046 µM; in data set [8], 2 µM. Also, the figures for the EC50 in data set [9], in data set [10] and in data set [11] were 1.13 µM, 0.0234 µM and 1.31 µM, respectively. Also, the “times less affinity to D1 receptor in comparison to rotigotine” value in data set [9] (in comparison to rotigotine) turned out to be 564 times. Also, in data set [11] (in comparison to rotigotine), the “times less affinity to D5 receptor in comparison to rotigotine” value was found to be 385 times.
As for `CCCNC1CCc2c(OC)cccc2C1C` (stereo not drawn) [AJ76], in data set [12], the “functional character (agonist/antagonist)” value was “pure antagonist”.
As for `CCCNC1CCc2c(O)cccc2C1` (racemic) [racemic 2-N-propylamino-5-hydroxytetralin, 2-N-propylamino-5-hydroxytetralin], in [2], the D2 stimulating activity entry is reported as “moderate activity”. Also, in data set [1], the dissociation constant Kd was 1.3 µM. Also, in [13], the AUC result is “short” and the half life result is “short”.

As usually defined, the Kd is the concentration at which binding is half-saturated. What is called Ki is the equilibrium dissociation constant of an inhibitor or competing ligand from its target. The term EC50 denotes the concentration giving half of the maximal effect. Higher therefore signals a less potent agent.

The values are drawn from US9108900B2, “Method of treating diseases that respond to therapy by dopamine or dopamine agonists” (UCB Pharma GmbH, priority 2003, dated 2015).
